Source: patent US12171230B2, “Herbicidal compositions” (Bayer Aktiengesellschaft, priority 2018, dated 2024)

Columns and labels:
Format in all cases: in vivo
[1] = system: Centaurea cyano; assay: Post-emergence herbicidal action against Centaurea cyano
Outline: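 Formulations (spray powders or emulsion concentrates) applied at various doses onto foliage using 300 to 800 l/ha water; plants treated at three-leaf stage, three weeks post-sowing in sandy loam under greenhouse conditions.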

[2] = system: Bromus sterilis; assay: Post-emergence herbicidal action against Bromus sterilis
[3] = system: Matricaria inodora; assay: Post-emergence herbicidal action against Matricaria inodora; settings: for Herbicidal action: 1 g a.i./ha
[4] = system: Lamium purpureum; assay: Post-emergence herbicidal action against Lamium purpureum; settings: for Herbicidal action: 1 g a.i./ha
Protocol: When the observed efficacies exceed the formal sum total of the values of the tests with individual applications, they also exceed the expected value according to Colby, which is calculated using the formula below and is likewise regarded as an indication of synergism (cf. S. R. Colby; in Weeds 15 (1967) p. 20 to 22): E^C=A+B−([…])
Here: • A=efficacy of the active compound (A) in % at an application rate of a g a.i./ha; • B=efficacy of the active compound (B) in % at an application rate of b g a.i./ha; • E^C=expected value of the effect of the combination (A)+(B) in % at the combined application rate a+b g a.i./ha.
Seeds or rhizome pieces of mono- and dicotyledonous weeds are placed in sandy loam in pots, covered with soil and grown in a greenhouse under good growth conditions (temperature, air humidity, water supply). Three weeks after sowing, the test plants were treated at the three-leaf stage with the compositions according to the invention. The compositions according to the invention formulated as spray powders or as emulsion concentrates were sprayed onto the green plant parts in various dosages with an application rate of 300 to 800 l/ha of water (equivalent). After the test plants have been left to stand in the greenhouse under optimal growth conditions for about 3 to 4 weeks, the action of the preparations is scored visually in comparison to untreated controls. The compositions according to the invention also have good post-emergence herbicidal activity against a broad spectrum of economically important gramineous and broadleaf weeds.

[5] = system: Bromus sterilis; assay: Post-emergence herbicidal action against Bromus sterilis; remark: listed apart in the source
Description: (§1) The following abbreviations are used in the description and the tables that follow: • g of a.i./ha=grams of active substance (active ingredient) (=100% active compound) per hectare; • The sum total of the effects of the individual applications is reported under E^A; • expected values according to Colby are each reported under E^C.
(§2) The rating period is reported in days after application (DAT).

[6] = system: Lolium rigidum; assay: Post-emergence herbicidal action against Lolium rigidum
[7] = system: Viola tricolor; assay: Post-emergence herbicidal action against Viola tricolor
[8] = system: Lolium rigidum (resistant biotype); assay: Post-emergence herbicidal action against Lolium rigidum (resistant biotype)
Outline: (§3)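 Rates are given as grams of active ingredient (100% active compound) per hectare. E^A is the summed effect of the individual applications and E^C the expected value by Colby, with ratings timed in days after application (DAT).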

[9] = system: Phalaris minor; assay: Post-emergence herbicidal action against Phalaris minor
Outline: as §3

[10] = system: Phalaris minor; assay: as above; remark: listed apart in the source
[11] = system: Galium aparine; assay: Post-emergence herbicidal action against Galium aparine; settings: for Herbicidal action: 28 DAT
Outline: (§4)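 Post-emergence foliar application: sandy-loam pots, greenhouse, treatment at three-leaf stage, 300–800 l/ha spray volume. Readout is visual % effect at 3–4 weeks, compared with the Colby expected value for mixtures.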

[12] = system: Lolium rigidum; assay: Post-emergence herbicidal action against Lolium rigidum; remark: listed apart in the source
Description: as §1, §2

[13] = system: Poa annua; assay: Post-emergence herbicidal action against Poa annua
Outline: as §4

[14] = system: Viola tricolor; assay: Post-emergence herbicidal action against Viola tricolor; settings: (Z119) post-emergence; g of a.i./ha: 16, 270, 16 + 270
Description: as §1, §2

[15] = system: Alopecurus myosuroides; assay: Post-emergence herbicidal action against Alopecurus myosuroides; settings: (Z119) post-emergence, g of a.i./ha: 16, 1, 270, 16 + 270, 1 + 270
Outline: as §3

[16] = 14 DAT, resistant biotype, 1 g a.i./ha
[17] = (Z119) post-emergence, g of a.i./ha: 1, 270, 1 + 270

COC(=O)C1=C[C@@H](NC(=O)[C@@]2(C)CC(c3cc(F)cc(F)c3)=NO2)CO1 [Compound A6, methyl (3R)-3-[[(5R)-3-(3,5-difluorophenyl)-5-methyl-4H-isoxazole-5-carbonyl]amino]-2,3-dihydrofuran-5-carboxylate]
50%: Herbicidal action ([2]; 28 DAT, 1 g a.i./ha) | Herbicidal action 28 DAT against Bromus sterilis ([5]; (Z148) post-emergence, g of a.i./ha: 1, 270, 90, 30, 1 + 270, 1 + 90, 1 + 30) | Herbicidal action [6, 16] | Herbicidal action ([7]; 28 DAT, 4 g a.i./ha) | Herbicidal action ([13]; 28 DAT, 1 g a.i./ha)
60%: Herbicidal action ([7]; 28 DAT, 16 g a.i./ha) | Herbicidal action 28 DAT against Galium aparine ([11]; 1 g of a.i./ha)
85%: Herbicidal action ([1]; 14 DAT, 4 g a.i./ha) | Herbicidal action ([2]; 14 DAT, 16 g a.i./ha) | Herbicidal action 14 DAT against Lamium purpureum L. ([4]; 4 g of a.i./ha)
90%: Herbicidal action 28 DAT against Phalaris minor ([9]; 16 g of a.i./ha) | Herbicidal action ([10]; 28 DAT, 16 g a.i./ha) | Herbicidal action 28 DAT against Lolium rigidum ([12]; 16 g of a.i./ha)
80%: Herbicidal action ([2]; 14 DAT, 4 g a.i./ha) | Herbicidal action 14 DAT against Bromus sterilis ([5]; (Z148) post-emergence, g of a.i./ha: 4, 1, 270, 90, 30, 4 + 270, 4 + 90, 4 + 30, 1 + 30, 4 g of a.i./ha)
75%: Herbicidal action 28 DAT against Lamium purpureum L. ([4]; 1 g of a.i./ha) | Herbicidal action 14 DAT against Bromus sterilis ([5]; (Z148) post-emergence, g of a.i./ha: 4, 1, 270, 90, 30, 4 + 270, 4 + 90, 4 + 30, 1 + 30, 1 g of a.i./ha)
40%: Herbicidal action ([1]; 14 DAT, 1 g a.i./ha) | Herbicidal action ([1]; 28 DAT, 1 g a.i./ha) | Herbicidal action ([3]; 14 DAT)
70%: Herbicidal action ([1]; 28 DAT, 4 g a.i./ha) | Herbicidal action 14 DAT against Matricaria inodora ([3]; 16 g of a.i./ha) | Herbicidal action ([6]; 28 DAT, resistant biotype, 16 g a.i./ha) | Herbicidal action 28 DAT against Lolium rigidum (resistant biotype) ([8]; 16 g of a.i./ha) | Herbicidal action 28 DAT against Poa annua L. ([13]; 16 g of a.i./ha) | Herbicidal action ([13]; 28 DAT, 16 g a.i./ha)

C=C[C@]1(C(=O)N[C@@H]2C=C(C(=O)OC)OC2)CC(c2cc(F)cc(F)c2)=NO1 [Compound A5, methyl (3R)-3-[[(5S)-3-(3,5-difluorophenyl)-5-vinyl-4H-isoxazole-5-carbonyl]amino]-2,3-dihydrofuran-5-carboxylate]
80%: Herbicidal action ([2]; 14 DAT, 16 g a.i./ha) | Herbicidal action 14 DAT against Lamium purpureum L. ([4]; (Z119) post-emergence, g of a.i./ha by row: 16, 30, 16 + 30)
70%: Herbicidal action ([6]; 14 DAT, resistant biotype, 16 g a.i./ha) | Herbicidal action 28 DAT against Phalaris minor ([9]; (Z119) post-emergence, g of a.i./ha: 16, 4, 270, 90, 30, 16 + 270, 16 + 90, 16 + 30, 4 + 270, 4 + 30, 16 g of a.i./ha) | Herbicidal action ([10]; 28 DAT, 16 g a.i./ha) | Herbicidal action ([11]; 16 g a.i./ha) | Herbicidal action ([13]; 14 DAT, 16 g a.i./ha)
10%: Herbicidal action ([3]; 28 DAT)
50%: Herbicidal action 14 DAT against Bromus sterilis ([5]; (Z119) post-emergence, g of a.i./ha: 1, 270, 90, 1 + 270, 1 + 90) | Herbicidal action 14 DAT against Alopecurus myosuroides ([15]; 1 g of a.i./ha) | Herbicidal action ([11]; 1 g a.i./ha) | Herbicidal action 28 DAT against Lolium rigidum ([12]; (Z119) post-emergence, g of a.i./ha: 16, 4, 1, 270, 90, 30, 16 + 270, 16 + 90, 16 + 30, 4 + 270, 4 + 90, 4 + 30, 1 + 270, 4 g of a.i./ha)
30%: Herbicidal action ([2]; 28 DAT, 1 g a.i./ha) | Herbicidal action ([3]; 14 DAT) | Herbicidal action 28 DAT against Bromus sterilis [5, 17] | Herbicidal action ([6]; 14 DAT, 1 g a.i./ha) | Herbicidal action [6, 16] | Herbicidal action ([6]; 28 DAT, 1 g a.i./ha) | Herbicidal action ([10]; 28 DAT, 1 g a.i./ha) | Herbicidal action 28 DAT against Lolium rigidum ([12]; (Z119) post-emergence, g of a.i./ha: 16, 4, 1, 270, 90, 30, 16 + 270, 16 + 90, 16 + 30, 4 + 270, 4 + 90, 4 + 30, 1 + 270, 1 g of a.i./ha) | Herbicidal action ([13]; 14 DAT, 1 g a.i./ha)
20%: Herbicidal action ([1]; 14 DAT, 1 g a.i./ha) | Herbicidal action ([6]; 28 DAT, resistant biotype, 1 g a.i./ha) | Herbicidal action 28 DAT against Lolium rigidum (resistant biotype) [8, 17] | Herbicidal action ([13]; 28 DAT, 1 g a.i./ha)
75%: Herbicidal action ([1]; 28 DAT, 16 g a.i./ha) | Herbicidal action 28 DAT against Centaurea cyanus ([1]; (Z119) post-emergence, g of a.i./ha: 16, 270, 90, 30, 16 + 270, 16 + 90, 16 + 30) | Herbicidal action ([2]; 14 DAT, 4 g a.i./ha)
85%: Herbicidal action 14 DAT against Phalaris minor ([9]; (Z119) post-emergence, g of a.i./ha: 16, 4, 270, 90, 270, 16 + 270, 16 + 90, 4 + 270) | Herbicidal action 14 DAT against Alopecurus myosuroides ([15]; 16 g of a.i./ha) | Herbicidal action ([10]; 14 DAT, 16 g a.i./ha)
40%: Herbicidal action ([4]; 28 DAT) | Herbicidal action ([7]; 28 DAT, 4 g a.i./ha) | Herbicidal action ([7]; 28 DAT, 16 g a.i./ha)
60%: Herbicidal action 14 DAT against Viola tricolor [14] | Herbicidal action ([4]; 14 DAT) | Herbicidal action ([6]; 28 DAT, 16 g a.i./ha) | Herbicidal action ([7]; 14 DAT, 16 g a.i./ha) | Herbicidal action 28 DAT against Phalaris minor ([9]; (Z119) post-emergence, g of a.i./ha: 16, 4, 270, 90, 30, 16 + 270, 16 + 90, 16 + 30, 4 + 270, 4 + 30, 4 g of a.i./ha) | Herbicidal action ([10]; 14 DAT, 1 g a.i./ha) | Herbicidal action 14 DAT against Galium aparine ([11]; (Z119) post-emergence, g of a.i./ha by row: 1, 30, 1 + 30) | Herbicidal action 28 DAT against Lolium rigidum ([12]; (Z119) post-emergence, g of a.i./ha: 16, 4, 1, 270, 90, 30, 16 + 270, 16 + 90, 16 + 30, 4 + 270, 4 + 90, 4 + 30, 1 + 270, 16 g of a.i./ha)
